The test system of one data set is tumour cell line HeLa. The data set is described as follows: Cell proliferation, 14C-thymidine incorporation, HeLa. It counts as cell-based. The text has this:
Measurement of the Cell Proliferation
For orientation: Incorporation of labelled thymidine or its analogues reports DNA synthesis.

For a further data set, the target named is Aurora B/Incenp (Homo sapiens (Human), UniProt Q96GD4). The data set is described as follows: Aurora B/Incenp kinase activity, radioactive 33P incorporation into NuMA fragment.
A short description of data set [1]: Metabolism in the presence of murine microsomal liver fractions. Conditions: percentage disappearance, 5 μM, 20 minutes; for Mouse microsome: 1 mg/ml proteins, NADPH. In kind it is in vitro ADME. Here is the method:
(§1) Evaluation of the Metabolism in the Presence of Microsomal Preparations of Human and Murine Livers.
(§2) The compounds of the invention (5 μM) are incubated at physiological temperature over human and murine microsomal liver fractions (1 mg/ml of proteins), diluted in a phosphate buffer, in the presence of bovine serum albumin (1 mg/ml BSA), and the reduced form of nicotinamide adenine dinucleotide phosphate (1 mM NADPH). To terminate incubation, four volumes of acetonitrile containing corticosterone as internal standard (IS) are added. The samples are centrifuged and the supernatants are analysed by liquid chromatography/tandem mass spectrometry coupling (LC/MS-MS). The LC/MS-MS analysis is performed on a QTRAP API4000 mass spectrometer (Sciex) equipped with an 1100 series chromatography system (Agilent) and a Pal CTC automatic injector. The data are acquired and analysed using Analyst 1.4.1 software. The samples are separated on a 3 μm C18 Polaris column, eluted at a flow rate of 0.7 ml/min with a gradient from acetonitrile (solvent B) into water containing 0.1% formic acid (solvent A). The elution programme is composed of the gradient from 20 to 90% of solvent B in 2 minutes, an isocratic stage at 90% of solvent B, for 0.9 minute, and a return to the initial conditions in 0.1 minute. The area of the chromatographic peaks for the compound and for the internal standard are integrated using the Analyst-Classic algorithm. The metabolic stability of the products of the invention is estimated by comparing the integration ratios (ion currents of the compounds/ion current IS) measured after 0 minute (t0) and 20 minutes (t20) of incubation. The metabolic stability is then expressed as a percentage disappearance in accordance with the following formula: Metabolism %=(ratio of peaks at t0−ratio of peaks at t20)/ratio of peaks at t0

The next data set deals with PDE3A (Homo sapiens (Human), UniProt Q14432). The data set is described as follows: Effect on the activity of the enzyme PDE3 (CEREP, HTRF). Conditions: for inhibition at 1 µM: read-out: PDE3 inhibition at 1000 nM; for IC50: read-out: IC50 PDE3, recombinant PDE3A, substrate cAMP. On the technique in general: TR-FRET usually uses a lanthanide donor and a delayed reading to cut background.

Data set [2] can be described thus: Metabolism in the presence of human microsomal liver fractions. In kind it is in vitro ADME. Conditions: percentage disappearance, 5 μM, 20 minutes; for Human microsome: 1 mg/ml proteins, NADPH. Here is the method: as §1, §2
A short description of data set [3]: Chemical stability in various media (HPLC). It counts as physicochemical. Conditions: 100 μM, 20° C., 48 hours. Here is the method: Measurement of the Chemical Stability of the Compounds
The compounds are diluted in the media under study at a final concentration of 100 μM, by dilution of a 10 mM stock solution in DMSO. The solutions are stored at 20° C. for a total time of 48 hours, and the concentration of the compounds under study is measured over time (t=0, 1, 6, 12, 24 and 48 hours) by HPLC. HPLC analysis is carried out with an Agilent system 1100 instrument equipped with a diode array detector on a Luna 018 column, 30×4.6 mm, 3 μm (Phenomenex) which is eluted with a gradient from acetonitrile (solvent B) into water containing 0.5% (v/v) of formic acid (solvent A) at a flow rate of 1.5 ml/min and a temperature of 25° C. The elution programme consists of a gradient from 10 to 90% solvent B in 5 minutes, followed by an isocratic stage of one minute at 90% of solvent B, and return to the initial conditions over one minute. The concentration of the products under study is estimated from the height and area of the characteristic peak of the product under study on a chromatogram at the maximum wavelength of each product. The area and the height measured at each time of sampling are related to the area and height obtained for the sample at time 0. When degradation is observed, a half-life is measured from the resulting time-concentration curve.

Data set [4] concerns HCT116. The settings on record: read-out: IC50 HCT116; HCT116, 96 hours treatment.
Procedure: (§3) The cell proliferation is estimated by the amount of ^14C-thymidine incorporated in the cells.
(§4) D0: the cells are seeded in 96-well Cytostar plates in 180 μL of culture medium. The plates are then placed in an incubator at 37° C., 5% CO2 for four hours. The test products are then added in a volume of 10 μL per well, starting from a 20× solution. This solution contains 2% of DMSO in the culture medium. The final concentration of DMSO is therefore 0.1%. The plates are then placed in an incubator at 37° C./5% CO2 for 72 hours. D3: after 72 hours, 10 μL per well of ^14C-thymidine at 10 μCi/mL in the culture medium are added. The plates are then placed in an incubator at 37° C., 5% CO2 for 24 hours. D4: The incorporation of ^14C thymidine is measured on a Micro-Beta radioactivity counter (Perkin-Elmer) after this 24-hour, “pulse” period. The total time of treatment of the cells with the test product is 96 hours.
(§5) The percentage inhibitions IC50 are calculated in Excel using the following formula:
(§6) [formula] X=Measurement for the Sample CC=Cell Control Blank=Measurement in the wells without cells
Data set [5] is described as follows: Clearance in the presence of human hepatocytes. In kind it is in vitro ADME. Conditions: 0.5 or 5 μM, 24 hours, average over different preparations of hepatocytes. Here is the method:
The LC/MS-MS analysis is performed on a QTRAP API4000 mass spectrometer (Sciex) equipped with an 1100 series chromatography system (Agilent) and a Pal CTC automatic injector. The data are acquired and analysed using Analyst 1.4.1 software. The samples are separated on a 3 μm C18 Polaris column, eluted at a flow rate of 0.7 ml/min with a gradient from acetonitrile (solvent B) into water containing 0.1% formic acid (solvent A). The elution programme is composed of the gradient from 20 to 90% of solvent B in 2 minutes, an isocratic stage at 90% of solvent B, for 0.9 minute, and a return to the initial conditions in 0.1 minute.

For the next data set, the target named is Aurora A (Homo sapiens (Human), UniProt O14965). The data set is described as follows: Aurora A kinase activity, radioactive 33P incorporation into NuMA fragment.
Data set [6] deals with HCT116. The data set is described as follows: cells. The settings on record: Homo sapiens, HCT-116, 96 h, read-out: IC50 HCT116.
Procedure: as §3, §4, §5, §6
Where [7] appears, read: Homo sapiens, 96 h, read-out: IC50 HeLa.
Setting [8] is: Homo sapiens, 96 hours treatment, read-out: IC50 HeLa (converted).
The mark [9] stands for this setting: read-out: IC50 Aurora A, 10 nM Aurora A, 1 μM ATP, 500 nM NuMA, 30 min at 37° C.

Like-named read-outs stand apart in the source and are kept apart here.

Chain of Aurora A (O14965 whole entry, the tested form may be a part): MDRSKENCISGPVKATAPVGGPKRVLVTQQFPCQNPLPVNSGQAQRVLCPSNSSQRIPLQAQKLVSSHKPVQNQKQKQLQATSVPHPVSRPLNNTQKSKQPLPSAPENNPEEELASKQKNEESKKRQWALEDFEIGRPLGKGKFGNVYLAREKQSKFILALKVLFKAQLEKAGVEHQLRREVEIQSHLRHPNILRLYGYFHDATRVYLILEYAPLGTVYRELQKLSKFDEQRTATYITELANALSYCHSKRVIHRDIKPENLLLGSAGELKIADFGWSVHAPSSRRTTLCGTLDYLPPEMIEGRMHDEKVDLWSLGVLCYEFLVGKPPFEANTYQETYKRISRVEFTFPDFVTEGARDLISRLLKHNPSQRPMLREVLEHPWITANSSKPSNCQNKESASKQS
Chain of PDE3A (Q14432 whole entry): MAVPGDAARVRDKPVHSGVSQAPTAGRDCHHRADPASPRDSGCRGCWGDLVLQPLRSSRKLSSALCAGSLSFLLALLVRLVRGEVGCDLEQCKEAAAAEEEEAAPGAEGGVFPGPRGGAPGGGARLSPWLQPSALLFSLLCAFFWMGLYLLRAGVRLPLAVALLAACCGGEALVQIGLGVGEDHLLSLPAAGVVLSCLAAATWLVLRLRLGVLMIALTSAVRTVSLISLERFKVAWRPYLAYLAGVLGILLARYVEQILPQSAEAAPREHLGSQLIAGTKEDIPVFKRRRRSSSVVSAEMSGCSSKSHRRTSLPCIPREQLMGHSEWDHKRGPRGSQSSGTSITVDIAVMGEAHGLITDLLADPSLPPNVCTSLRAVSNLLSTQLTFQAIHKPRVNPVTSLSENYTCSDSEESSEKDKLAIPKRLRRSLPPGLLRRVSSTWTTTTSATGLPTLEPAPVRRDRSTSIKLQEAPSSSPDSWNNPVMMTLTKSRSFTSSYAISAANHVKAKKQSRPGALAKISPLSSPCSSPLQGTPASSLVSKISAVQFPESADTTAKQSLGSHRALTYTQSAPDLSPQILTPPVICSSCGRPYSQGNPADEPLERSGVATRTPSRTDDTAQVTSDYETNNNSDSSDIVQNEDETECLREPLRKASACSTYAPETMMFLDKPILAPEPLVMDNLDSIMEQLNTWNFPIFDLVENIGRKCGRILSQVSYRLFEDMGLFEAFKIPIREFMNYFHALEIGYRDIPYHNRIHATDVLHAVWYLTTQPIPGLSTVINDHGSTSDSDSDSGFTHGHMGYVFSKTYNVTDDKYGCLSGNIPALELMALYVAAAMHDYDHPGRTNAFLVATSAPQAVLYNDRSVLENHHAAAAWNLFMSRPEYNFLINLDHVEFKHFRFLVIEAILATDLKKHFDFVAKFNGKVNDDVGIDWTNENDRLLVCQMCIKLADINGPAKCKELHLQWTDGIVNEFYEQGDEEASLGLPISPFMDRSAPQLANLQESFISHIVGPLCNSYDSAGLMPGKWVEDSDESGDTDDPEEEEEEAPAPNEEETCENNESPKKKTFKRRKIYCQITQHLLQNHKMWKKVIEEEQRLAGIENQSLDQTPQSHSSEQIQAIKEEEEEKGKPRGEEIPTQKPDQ
Chain of Aurora B/Incenp (Q96GD4 whole entry, the tested form may be a part): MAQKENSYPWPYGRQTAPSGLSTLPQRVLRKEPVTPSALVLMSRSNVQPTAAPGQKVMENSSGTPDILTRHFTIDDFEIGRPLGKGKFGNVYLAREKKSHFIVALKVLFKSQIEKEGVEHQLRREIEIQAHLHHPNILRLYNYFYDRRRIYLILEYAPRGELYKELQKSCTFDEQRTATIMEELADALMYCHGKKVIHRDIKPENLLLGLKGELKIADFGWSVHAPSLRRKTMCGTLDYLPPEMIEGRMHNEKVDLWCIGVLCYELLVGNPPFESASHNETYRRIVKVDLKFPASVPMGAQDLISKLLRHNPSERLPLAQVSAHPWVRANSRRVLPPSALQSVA
Chain of Aurora B/Incenp (Q9NQS7 821-918 partner): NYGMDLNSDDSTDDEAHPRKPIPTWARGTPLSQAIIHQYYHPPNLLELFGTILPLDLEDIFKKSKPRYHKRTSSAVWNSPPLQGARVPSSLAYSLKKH
Procedure for Aurora A: (§7) The kinase activity is measured by a radioactive assay of the amount of radioactive phosphate (^33P) incorporated into a fragment of the protein NuMA (Nuclear Mitotic Apparatus protein) after 30 minutes of incubation at 37° C. […] In each plate, there are eight control wells: four positive controls (maximum kinase activity), for which measurement is made in the presence of enzyme and substrate and in the absence of compound of the invention, and four negative controls (background) for which measurement is made in the absence of enzyme, substrate and test compound.
The recombinant human enzyme Aurora A used is expressed in entire form with a poly-Histidine tag in N-terminal position and is produced in E. coli.
Procedure for Aurora B/Incenp: as §7
The two proteins form a complex which is called Aurora B/Incenp. […] This fragment is used as substrate.
Source text for PDE3A: Evaluation of the Effect of the Compounds of the Invention on the Activity of the Enzyme PDE3

Broadly, the inhibition is how much of the control response was suppressed. As to `CCOC(=O)c1[nH]cc2c1NC1=C(C(=O)CCC1)C2c1cccc(Oc2nc3ccccc3[nH]2)c1` (racemic) [Example 1, ethyl 8-oxo-9-[3-(1H-benzimidazol-2-yloxy)phenyl]-4,5,6,7,8,9-hexahydro-2H-pyrrolo[3,4-b]quinoline-3-carboxylate], the IC50 in the data set on tumour cell line HeLa (setting [7]) is 205 nM; at Aurora B/Incenp it was 4 nM. For the same compound, the Mouse microsome in data set [1] is reported as 31%. Also, the inhibition at 1 µM on PDE3A is 78%. Moreover, the Human microsome in data set [2] was found to be 37%.

For `CCOC(=O)c1[nH]cc2c1NC1=C(C(=O)CCC1)C2c1cccc(Oc2nc3ccccc3[nH]2)c1` (single isomer, unassigned) [Example 3, ethyl 8-oxo-9-[3-(1H-benzimidazol-2-yloxy)phenyl]-4,5,6,7,8,9-hexahydro-2H-pyrrolo[3,4-b]quinoline-3-carboxylate], the results for the IC50 in the data set with tumour cell line HeLa (setting [7]) and on Aurora B/Incenp were > 10000 nM and 900 nM, respectively.

On to `CCOC(=O)c1[nH]cc2c1NC1=C(C(=O)CCC1)C2c1cccc(Oc2nc3ccccc3[nH]2)c1` (stereo not shown) [Example 2, ethyl 8-oxo-9-[3-(1H-benzimidazol-2-yloxy)phenyl]-4,5,6,7,8,9-hexahydro-2H-pyrrole[3,4-b]quinoline-3-carboxylate], for which, in the data set with tumour cell line HeLa (96 hours treatment, read-out: IC50 HeLa (converted)), the IC50 is 67 nM. Further, the IC50 on Aurora B/Incenp (read-out: IC50 Aurora B/Incenp) is 1 nM. Besides, in [3], the “Chemical stability, HCl 0.05N 50/50 water/acetonitrile” value is on record as “stable”; the “Chemical stability, NaOH 0.05N 50/50 water/acetonitrile” value is listed as “stable”; the “Chemical stability, Phosphate buffer 25 mM pH = 7.4 50/50 water/acetonitrile” value is “stable”; the “Chemical stability, Phosphate buffer 25 mM pH = 7.4 + 1% 2-mercaptoethanol 50/50 water/acetonitrile” value was “stable”. Further, the “Chemical stability, Phosphate buffer 25 mM pH = 7.4 + 1% benzylamine 50/50 water/acetonitrile” value in [3] is given as “stable”. Besides, in data set [1], the “Metabolism measured in the presence of murine microsomal fraction” value is on record as 50% and the Mouse microsome came to 50%. Moreover, the IC50 in the data set on HCT116 [4] is 20 nM. In data set [5], the “Intrinsic clearance measured in the presence of human hepatocytes” value is listed as 0.121 (average of 5 determinations obtained with 5 ml · h^−1 · 10^−6 cells. In addition, the IC50 on PDE3A was 4000 nM. In data set [2], the “Metabolism measured in the presence of human microsomal fraction” value is given as 32% and the Human microsome turned out to be 32%.

Regarding `CCOC(=O)c1[nH]cc2c1NC1=C(C(=O)CCC1)C2c1cccc(Sc2nc3ccccc3[nH]2)c1` (stereo not shown) [Example 4], the IC50 was 9660 nM in the data set on tumour cell line HeLa (setting [7]) and 6 nM on Aurora B/Incenp. For the same compound, the Mouse microsome in data set [1] was found to be 67%. For the same compound, the Human microsome in data set [2] was 77%.

For the compound `O=C1CCCC2=C1C(c1cccc(Oc3nc4ccccc4[nH]3)c1)c1c[nH]nc1N2` (stereo not shown) [Example 5], the IC50 was 9630 nM with tumour cell line HeLa (setting [8]), 6 nM on Aurora B/Incenp and 23 nM on Aurora A (setting [9]).

`O=C1CNCC2=C1C(c1cccc(Oc3nc4ccccc4[nH]3)c1)c1c[nH]nc1N2` (stereo not shown) [Example 6]: the IC50 in the data set with tumour cell line HeLa (setting [7]) was > 10000 nM; on Aurora B/Incenp, 13 nM.

Take `CCOC(=O)c1[nH]cc2c1NC1=C(C(=O)CC(C)(C)C1)C2c1cccc(Oc2nc3ccccc3[nH]2)c1` (stereo not shown) [Example 7]: the figures for the IC50 with tumour cell line HeLa (setting [8]), at Aurora B/Incenp and at Aurora A were 430 nM, 4 nM and 3 nM, respectively. Besides, in data set [1], the Mouse microsome is 96%. For the same compound, the Human microsome in data set [2] came out at 65%.

Turning to `CCOC(=O)c1[nH]cc2c1NC1=C(C(=O)CC(C)(C)C1)C2c1cccc(Sc2nc3ccccc3[nH]2)c1` (stereo not shown) [Example 8], the IC50 with tumour cell line HeLa (setting [8]) was 6860 nM; at Aurora B/Incenp, 21 nM; at Aurora A, 102 nM. Besides, in data set [1], the Mouse microsome turned out to be 84%. Moreover, in [2], the Human microsome amounted to 80%.

As to `CC1(C)CC(=O)C2=C(C1)Nc1n[nH]cc1C2c1cccc(Oc2nc3ccccc3[nH]2)c1` (stereo not shown) [Example 10], the IC50 was 6690 nM with tumour cell line HeLa (setting [8]), 9 nM on Aurora B/Incenp and 22 nM at Aurora A (setting [9]).

Take `CCOC(=O)c1[nH]cc2c1NC1=C(C(=O)CCC1)[C@@H]2c1ccc(Sc2nc3ccccc3[nH]2)o1` [Example 12]: the IC50 with tumour cell line HeLa (setting [7]) stood at 16 nM. In addition, in [3], the “Chemical stability, HCl 0.05N 50/50 water/acetonitrile” value is “stable”; the “Chemical stability, NaOH 0.05N 50/50 water/acetonitrile” value is given as “stable”; the “Chemical stability, Phosphate buffer 25 mM pH = 7.4 50/50 water/acetonitrile” value is listed as “stable”; the “Chemical stability, Phosphate buffer 25 mM pH = 7.4 + 1% 2-mercaptoethanol 50/50 water/acetonitrile” value is “unstable”. In addition, the “Chemical stability, Phosphate buffer 25 mM pH = 7.4 + 1% benzylamine 50/50 water/acetonitrile” value in data set [3] is recorded as “stable”. Also, in [1], the “Metabolism measured in the presence of murine microsomal fraction” value is recorded as 81% and the Mouse microsome was 81%. The “Intrinsic clearance measured in the presence of human hepatocytes” value in data set [5] is listed as 0.29 (average of 3 determinations obtained with 3 ml · h^−1 · 10^−6 cells. Moreover, in the data set on HCT116 [6], the IC50 was 1 nM. Besides, the IC50 on PDE3A is 68 nM. In addition, in data set [2], the “Metabolism measured in the presence of human microsomal fraction” value is 75% and the Human microsome worked out at 75%.

Turning to `CCOC(=O)c1[nH]cc2c1NC1=C(C(=O)CCC1)C2c1ccc(Sc2nc3cccc(OC)c3[nH]2)o1` (stereo not shown) [Example 13], the IC50 in the data set with tumour cell line HeLa (setting [8]) is 20 nM; at Aurora B/Incenp, 10 nM. In addition, in data set [1], the Mouse microsome was found to be 74%. Moreover, on PDE3A, the inhibition at 1 µM was found to be 93%. The Human microsome in [2] is recorded as 53%.
